Assays:
Assay type in all cases: cell-based
E. aerogenes strains = test: β-Lacta Test (colorimetric, HMRZ-86), isolated colonies; set-up: key: Yellow or orange colour: negative result (absence of C3G-resistant strains); Orange: Yellow or orange colour: negative result (absence of C3G-resistant strains); Red colour: positive result (presence of C3G-resistant strains)
Procedure: (§1) The electrochemical method of the invention was applied to analysis of a panel of 40 strains producing various β-lactamases and was compared with the R-Lacta™ Test (Biorad), the principle of which is based on qualitative colorimetric detection of the C3G-resistant strains. The results presented in Table 7 were obtained after 30 min of incubation of the bacteria with the substrate HMRZ-86 for both methods. Based on the interpretation of the results proposed by the supplier, the R-Lacta™ Test allows identification of the C3G-resistant strains with a level of agreement of 68%, whereas a level of agreement of 95% was obtained with the electrochemical method of the invention. In contrast to colorimetry, amperometry offers the advantage of measuring a numerical value of current which, on the one hand, avoids any subjective interpretation of the result (intermediate colour), and on the other hand allows traceability of the result.
(§2) Table 7: Comparison of the results obtained with the electrochemical method of the invention for liquid cultures with those obtained with the R-Lacta™ Test implemented according to the supplier's recommendations with isolated colonies. In both cases, the readings were taken after incubation with the substrate HMRZ-86 for 30 min.

S. marcescens strain = test: as above; set-up: key: Yellow or orange colour: negative result (absence of C3G-resistant strains); Orange: Yellow or orange colour: negative result (absence of C3G-resistant strains); Red colour: positive result (presence of C3G-resistant strains); details: S. marcescens 11787, Hyperproduced cephalosporinase, 30 min with HMRZ-86
Procedure: as §1, §2

E. cloacae strains = test: as above; set-up: key: Yellow or orange colour: negative result (absence of C3G-resistant strains); Orange: Yellow or orange colour: negative result (absence of C3G-resistant strains); Red colour: positive result (presence of C3G-resistant strains); details: 30 min with HMRZ-86
Procedure: as §1, §2

K. pneumoniae strains = test: as above; set-up: key: Yellow or orange colour: negative result (absence of C3G-resistant strains); Orange: Yellow or orange colour: negative result (absence of C3G-resistant strains); Red colour: positive result (presence of C3G-resistant strains)
Procedure: as §1, §2

K. oxytoca strain = test: as above; set-up: key: Yellow or orange colour: negative result (absence of C3G-resistant strains); Orange: Yellow or orange colour: negative result (absence of C3G-resistant strains); Red colour: positive result (presence of C3G-resistant strains); details: K. oxytoca 11779, Low-level penicillinase, 30 min with HMRZ-86
Procedure: as §1, §2

P. mirabilis strains = test: as above; set-up: key: Yellow or orange colour: negative result (absence of C3G-resistant strains); Orange: Yellow or orange colour: negative result (absence of C3G-resistant strains); Red colour: positive result (presence of C3G-resistant strains); details: 30 min with HMRZ-86
Procedure: as §1, §2

[1] = test system: E. coli strains producing various β-lactamases; test: as above; set-up: key: Yellow or orange colour: negative result (absence of C3G-resistant strains); Orange: Yellow or orange colour: negative result (absence of C3G-resistant strains); Red colour: positive result (presence of C3G-resistant strains)
Procedure: as §1, §2

C. freundii strain [2] = test: as above; set-up: key: Yellow or orange colour: negative result (absence of C3G-resistant strains); Orange: Yellow or orange colour: negative result (absence of C3G-resistant strains); Red colour: positive result (presence of C3G-resistant strains); details: C. freundii 11745, Inducible cephalosporinase, 30 min with HMRZ-86
Procedure: as §1, §2

P. aeruginosa strains = test: as above; set-up: key: Yellow or orange colour: negative result (absence of C3G-resistant strains); Orange: Yellow or orange colour: negative result (absence of C3G-resistant strains); Red colour: positive result (presence of C3G-resistant strains); details: 30 min with HMRZ-86
Procedure: as §1, §2

C. freundii strain [3] = test: Electrochemical assay with substrate HMRZ-86, liquid cultures; details: C. freundii 11745, Inducible cephalosporinase; liquid culture, 30 min with HMRZ-86
Procedure: Each cryopreserved strain is cultured in 10 mL of LB medium at 37° C. until the stationary phase is obtained.
A volume of 50 μL of culture liquid is incubated in the presence of 50 μL of a solution of HMRZ-86 at 0.5 mM in PBS at 37° C. with stirring for 30 min. 40 μL of the reaction mixture is taken and transferred onto the surface of a screen-printed carbon sensor (Dropsens, DRP-110) connected beforehand to a STAT 8000P portable potentiostat (Dropsens) with power supply from the computer's USB port and controlled by the DropView 8400 software. Linear voltammetry measurements are carried out by linear potential scanning from −0.1 V to 1.2 V at a rate of 50 mV·s^−1. The peak current appearing in the potential range +0.2 to +0.55 V vs. Ag/AgCl, associated with hydrolysis of the beta-lactam ring of HMRZ-86, is selected as the analytical response. If the intensity of the peak (i) has a value above 500 nA, the sample contains a strain capable of degrading the C3Gs.
as §1, §2

CC(C)(ON=C(C(=O)N[C@@H]1C(=O)N2C(C(=O)O)=C(C=Cc3ccc([N+](=O)[O-])cc3[N+](=O)[O-])CS[C@H]12)c1csc(N)n1)C(=O)O.O=C(O)C(F)(F)F [HMRZ-86, (6R,7R)-trifluoroacetate 7-[[2-(2-amino-4-thiazolyl)-2-[(1-carboxy-1-methylethoxy)imino]acetyl]amino]-1-aza-3-[2-(2,4-dinitrophenyl)ethenyl]-8-oxo-5-thiabicyclo[4.2.0]oct-2-ene-2-carboxylic acid]
β-Lacta ™ Test Colour (E. aerogenes strains; E. aerogenes 11772, Inducible cephalosporinase, 30 min with HMRZ-86): Yellow
β-Lacta ™ Test Colour (E. aerogenes strains; E. aerogenes 11775, Hyperproduced cephalosporinase, 30 min with HMRZ-86): Yellow
β-Lacta ™ Test Colour (E. aerogenes strains; E. aerogenes 11796, ESBL TEM 24, 30 min with HMRZ-86): Orange
β-Lacta ™ Test Colour (S. marcescens strain): Orange
β-Lacta ™ Test Colour (E. cloacae strains; E. cloacae 11784, Hyperproduced cephalosporinase): Orange
β-Lacta ™ Test Colour (E. cloacae strains; E. cloacae 11790, Hyperproduced cephalosporinase): Orange
β-Lacta ™ Test Colour (E. cloacae strains; E. cloacae 11794, Hyperproduced cephalosporinase): Orange
β-Lacta ™ Test Colour (K. pneumoniae strains; K. pneumoniae 11754, Carbapenemase OXA-48 - CTX-M, 30 min with HMRZ-86): Red
β-Lacta ™ Test Colour (K. pneumoniae strains; K. pneumoniae 11762, Carbapenemase OXA-48, 30 min with HMRZ-86): Orange
β-Lacta ™ Test Colour (K. pneumoniae strains; K. pneumoniae 11770, Low-level penicillinase, 30 min with HMRZ-86): Yellow
β-Lacta ™ Test Colour (K. pneumoniae strains; K. pneumoniae 11812, ESBL CTX-M-15, 30 min with HMRZ-86): Red
β-Lacta ™ Test Colour (K. pneumoniae strains; K. pneumoniae 11839, Carbapenemase KPC-2, 30 min with HMRZ-86): Red
β-Lacta ™ Test Colour (K. pneumoniae strains; K. pneumoniae 11842, Carbapenemase NDM-1, 30 min with HMRZ-86): Red
β-Lacta ™ Test Colour (K. oxytoca strain): Yellow
β-Lacta ™ Test Colour (P. mirabilis strains; P. mirabilis 11747, Beta-lactamase negative): Yellow
β-Lacta ™ Test Colour (P. mirabilis strains; P. mirabilis 11768, Low-level penicillinase): Yellow
β-Lacta ™ Test Colour ([1]; E. coli 11746, Hyperproduced penicillinase, 30 min with HMRZ-86): Yellow
β-Lacta ™ Test Colour ([1]; E. coli 11748, Inducible cephalosporinase, 30 min with HMRZ-86): Yellow
β-Lacta ™ Test Colour ([1]; E. coli 11755, Carbapenemase OXA-48 - CTX-M, 30 min with HMRZ-86): Red
β-Lacta ™ Test Colour ([1]; E. coli 11757, Carbapenemase OXA-48, 30 min with HMRZ-86): Orange
β-Lacta ™ Test Colour ([1]; E. coli 11765, Hyperproduced penicillinase, 30 min with HMRZ-86): Yellow
β-Lacta ™ Test Colour ([1]; E. coli 11766, Inducible cephalosporinase, 30 min with HMRZ-86): Yellow
β-Lacta ™ Test Colour ([1]; E. coli 11771, Hyperproduced penicillinase, 30 min with HMRZ-86): Yellow
β-Lacta ™ Test Colour ([1]; E. coli 11776, Inducible cephalosporinase, 30 min with HMRZ-86): Yellow
β-Lacta ™ Test Colour ([1]; E. coli 11780, Hyperproduced penicillinase, 30 min with HMRZ-86): Yellow
β-Lacta ™ Test Colour ([1]; E. coli 11781, Low-level penicillinase, 30 min with HMRZ-86): Yellow
β-Lacta ™ Test Colour ([1]; E. coli 11791, Hyperproduced cephalosporinase, 30 min with HMRZ-86): Yellow
β-Lacta ™ Test Colour ([1]; E. coli 11810, ESBL CTX-M-1, 30 min with HMRZ-86): Red
β-Lacta ™ Test Colour ([1]; E. coli 11817, ESBL CTX-M-2, 30 min with HMRZ-86): Red
β-Lacta ™ Test Colour ([1]; E. coli 11818, ESBL CTX-M-1, 30 min with HMRZ-86): Red
β-Lacta ™ Test Colour ([1]; E. coli 11820, ESBL SHV-12, 30 min with HMRZ-86): Red
β-Lacta ™ Test Colour ([1]; E. coli 11828, ESBL CTX-M-27, 30 min with HMRZ-86): Red
β-Lacta ™ Test Colour ([1]; E. coli 11833, ESBL CTX-M-9, 30 min with HMRZ-86): Red
β-Lacta ™ Test Colour ([1]; E. coli 11834, ESBL TEM-12, 30 min with HMRZ-86): Yellow
β-Lacta ™ Test Colour ([1]; E. coli 11863, ESBL CTX-M-14, 30 min with HMRZ-86): Red
β-Lacta ™ Test Colour ([1]; E. coli K12, Beta-lactamase negative, 30 min with HMRZ-86): Yellow
β-Lacta ™ Test Colour (C. freundii strain [2]): Yellow
β-Lacta ™ Test Colour (P. aeruginosa strains; P. aeruginosa 11774, Hyperproduced cephalosporinase): Orange
β-Lacta ™ Test Colour (P. aeruginosa strains; P. aeruginosa 11778, Hyperproduced cephalosporinase): Yellow
β-Lacta ™ Test Colour (P. aeruginosa strains; P. aeruginosa 11782, Hyperproduced cephalosporinase): Yellow
Electrochemical assay Intensity (C. freundii strain [3]): 369 nA

Reference: patent US10718006B2, “Methods for detecting beta-lactamase-producing bacteria” (priority 2015, dated 2020)
